Converted amounts (≈) assume the structure as drawn. Like-named read-outs stand apart in the source and are kept apart here.
What was measured:
Serratia marcescens = experiment: MIC, broth microdilution, standard strains and Japanese clinical isolates (Example 5, Table 4); type: cell-based
[1] = test system: E. coli ATCCBAA-2469 producing NDM-1; experiment: Systemic infection lethal mouse model, ED50 (Example 14, Table 32); settings: 7 days after infection
Description: The test strains on the agar medium were suspended in saline and adjusted to a Klett unit of about 200 using a Klett Photoelectric Colorimeter. […] Male ICR mice were inoculated intraperitoneally with 0.2 mL of the bacterial suspension. Two hours after the inoculation, saline or a solution for administering the agent at each concentration was administered subcutaneously to the mice in a single dose. The number of mice that survived from Day 1 to Day 7 after infection was recorded.

A. baumannii = experiment: MIC, Gram-negative bacteria clinically isolated in the United States (Example 8, Table 16); type: cell-based; settings: Acinetobacter baumannii; A. baumannii (80 strains) isolated in the United States; Compound A µg/mL in parentheses
E. coli = experiment: as above; type: cell-based; settings: E. coli (80 strains) isolated in the United States, Compound A µg/mL in parentheses
P. aeruginosa = experiment: Systemic infection lethal mouse model, ED50 (Example 15, Table 33); settings: for Survival rate: 7 days after infection; for ED50: Pseudomonas aeruginosa, in Mus musculus, sc
Description: The test strains on the agar medium were suspended in saline and adjusted to a Klett unit of about 200 using a Klett Photoelectric Colorimeter. […] Male ICR mice were inoculated intraperitoneally with 0.2 mL of the bacterial suspension. Two hours after the inoculation, saline or a solution for administering the agent of each concentration was administered subcutaneously to the mice in a single dose. The number of mice that survived from Day 1 to Day 7 after infection was recorded.

Klebsiella aerogenes = experiment: MIC, broth microdilution, standard strains and Japanese clinical isolates (Example 5, Table 4); type: cell-based; settings: carbapenemase genes -
Klebsiella pneumoniae = experiment: MIC, Gram-negative bacteria clinically isolated in the United States (Example 8, Table 16); type: cell-based; settings: K. pneumoniae (80 strains) isolated in the United States, Compound A µg/mL in parentheses
[2] = test system: carbapenemase-producing Enterobacteriaceae (CPE); experiment: Bactericidal activity by bactericidal curve method (Example 10); type: cell-based, E. coli, Klebsiella pneumoniae; settings: MEPM ≥1 x MIC; within 1 to 2 hours after culture; all four strains
[3] = test system: carbapenemase-producing Enterobacteriaceae (CPE); experiment: MIC in human urine and CAMHB at pH 5.0 to 8.0 (Example 13, Tables 29, 30); settings: Escherichia coli

Q: What does the source list for `C[C@@H](O)[C@H]1C(=O)N2C(C(=O)O)=C(S[C@@H]3CN[C@H](C(=O)N(C)C)C3)[C@H](C)[C@H]12` [MEPM, meropenem]?
A: MIC (Serratia marcescens; KUB3169 Serratia marcescens Clinical isolate, carbapenemase genes Unidentified, read-out: MIC): 2 µg/mL (≈ 5.22 µM); MIC (Serratia marcescens; KUB3170 Serratia marcescens Clinical isolate, carbapenemase genes Unidentified): 2 µg/mL (≈ 5.22 µM); MIC (Serratia marcescens; KUB3171 Serratia marcescens Clinical isolate, carbapenemase genes -): 2 µg/mL (≈ 5.22 µM); Survival rate ([1]; Dose 10 mg/kg): 10%; Survival rate ([1]; Dose 30 mg/kg): 0%; Survival rate ([1]; Dose 60 mg/kg): 0%; Survival rate ([1]; Dose 100 mg/kg): 80%; MIC50 (A. baumannii): 2 µg/mL (≈ 5.22 µM); MIC90 (A. baumannii): 64 µg/mL (≈ 167 µM); MICrange (E. coli): ≤0.125 to 16 µg/mL; MIC50 (E. coli; Escherichia coli): ≤ 0.125 µg/mL; MIC90 (E. coli; Escherichia coli): ≤ 0.125 µg/mL; Survival rate (P. aeruginosa; CDC-90 (Serine), Dose 10 mg/kg): 0%; Survival rate (P. aeruginosa; CDC-90 (Serine), Dose 30 mg/kg): 10%; Survival rate (P. aeruginosa; CDC-90 (Serine), Dose 100 mg/kg): 90%; Survival rate (P. aeruginosa; CDC-90 (Serine), Dose 300 mg/kg): 100%; Survival rate (P. aeruginosa; CDC-110 (Metallo), Dose 100 mg/kg): 0%; Survival rate (P. aeruginosa; CDC-110 (Metallo), Dose 150 mg/kg): 30%; Survival rate (P. aeruginosa; CDC-110 (Metallo), Dose 200 mg/kg): 60%; Survival rate (P. aeruginosa; CDC-110 (Metallo), Dose 300 mg/kg): 60%; ED50 (P. aeruginosa; 2 h, read-out: ED50 of MEPM (95% confidence intervals), CDC-90 (Serine), single subcutaneous dose 2 hours after infection, with cilastatin at 100 mg/kg): 54.8 mg/kg; ED50 (P. aeruginosa; 2 h, read-out: ED50 of MEPM (95% confidence intervals), CDC-110 (Metallo), single subcutaneous dose 2 hours after infection, with cilastatin at 100 mg/kg): 218 mg/kg; ED50 (P. aeruginosa; read-out: ED50 of MEPM, P. aeruginosa CDC-90 (KPC-5), single s.c. dose, with cilastatin 100 mg/kg): 54.8 mg/kg; ED50 (P. aeruginosa; read-out: ED50 of MEPM, P. aeruginosa CDC-110 (VIM-2), single s.c. dose, with cilastatin 100 mg/kg): 218 mg/kg; MIC (Klebsiella aerogenes; KUB3614 Klebsiella aerogenes Clinical isolate): 2 µg/mL (≈ 5.22 µM); MIC (Klebsiella aerogenes; KUB3615 Klebsiella aerogenes Clinical isolate): 0.12 µg/mL (≈ 0.313 µM); MIC50 (Klebsiella pneumoniae): ≤ 0.125 µg/mL; MIC90 (Klebsiella pneumoniae): 4 µg/mL (≈ 10.4 µM); reduction in the number of bacteria compared to preculture level [2]: 3 log10; MIC ([3]; ATCC25922, pH 5, read-out: MICs of MEPM, E. coli ATCC 25922 (QC strain), CAMHB pH5.0): 0.12 µg/mL (≈ 0.313 µM); MIC ([3]; ATCC25922, pH 5, read-out: MICs of MEPM, E. coli ATCC 25922 (QC strain), Human urine pH5.0): 0.12 µg/mL (≈ 0.313 µM); MIC ([3]; ATCC25922, pH 6, read-out: MICs of MEPM, E. coli ATCC 25922 (QC strain), CAMHB pH6.0): 0.06 µg/mL (≈ 0.156 µM); MIC ([3]; ATCC25922, pH 6, read-out: MICs of MEPM, E. coli ATCC 25922 (QC strain), Human urine pH6.0): 0.03 µg/mL (≈ 0.0782 µM); MIC ([3]; ATCC25922, pH 7, read-out: MICs of MEPM, E. coli ATCC 25922 (QC strain), Human urine pH7.0): 0.015 µg/mL (≈ 0.0391 µM); MIC ([3]; ATCC25922, pH 7.2, read-out: MICs of MEPM, E. coli ATCC 25922 (QC strain), Standard condition (CAMHB pH7.2)): 0.03 µg/mL (≈ 0.0782 µM); MIC ([3]; ATCC25922, pH 8, read-out: MICs of MEPM, E. coli ATCC 25922 (QC strain), CAMHB pH8.0): 0.015 µg/mL (≈ 0.0391 µM); MIC ([3]; ATCC25922, pH 8, read-out: MICs of MEPM, E. coli ATCC 25922 (QC strain), Human urine pH8.0): 0.015 µg/mL (≈ 0.0391 µM); MIC ([3]; ATCCBAA2340, pH 5, read-out: MICs of MEPM, E. coli ATCC BAA-2340 (KPC-3), CAMHB pH5.0): 2 µg/mL (≈ 5.22 µM); MIC ([3]; ATCCBAA2340, pH 5, read-out: MICs of MEPM, E. coli ATCC BAA-2340 (KPC-3), Human urine pH5.0): 1 µg/mL (≈ 2.61 µM); MIC ([3]; ATCCBAA2340, pH 6, read-out: MICs of MEPM, E. coli ATCC BAA-2340 (KPC-3), CAMHB pH6.0): 8 µg/mL (≈ 20.9 µM); MIC ([3]; ATCCBAA2340, pH 6, read-out: MICs of MEPM, E. coli ATCC BAA-2340 (KPC-3), Human urine pH6.0): 1 µg/mL (≈ 2.61 µM); MIC ([3]; ATCCBAA2340, pH 7, read-out: MICs of MEPM, E. coli ATCC BAA-2340 (KPC-3), Human urine pH7.0): 2 µg/mL (≈ 5.22 µM); MIC ([3]; ATCCBAA2340, pH 7.2, read-out: MICs of MEPM, E. coli ATCC BAA-2340 (KPC-3), Standard condition (CAMHB pH7.2)): 8 µg/mL (≈ 20.9 µM); MIC ([3]; ATCCBAA2340, pH 8, read-out: MICs of MEPM, E. coli ATCC BAA-2340 (KPC-3), CAMHB pH8.0): 4 µg/mL (≈ 10.4 µM); MIC ([3]; ATCCBAA2340, pH 8, read-out: MICs of MEPM, E. coli ATCC BAA-2340 (KPC-3), Human urine pH8.0): 8 µg/mL (≈ 20.9 µM); MIC ([3]; ATCCBAA2469, pH 5, read-out: MICs of MEPM, E. coli ATCC BAA-2469 (NDM-1), CAMHB pH5.0): 0.12 µg/mL (≈ 0.313 µM); MIC ([3]; ATCCBAA2469, pH 5, read-out: MICs of MEPM, E. coli ATCC BAA-2469 (NDM-1), Human urine pH5.0): 0.12 µg/mL (≈ 0.313 µM); MIC ([3]; ATCCBAA2469, pH 6, read-out: MICs of MEPM, E. coli ATCC BAA-2469 (NDM-1), CAMHB pH6.0): 8 µg/mL (≈ 20.9 µM); MIC ([3]; ATCCBAA2469, pH 6, read-out: MICs of MEPM, E. coli ATCC BAA-2469 (NDM-1), Human urine pH6.0): 0.12 µg/mL (≈ 0.313 µM); MIC ([3]; ATCCBAA2469, pH 7, read-out: MICs of MEPM, E. coli ATCC BAA-2469 (NDM-1), Human urine pH7.0): 16 µg/mL (≈ 41.7 µM)

— patent EP4635500A1, “THERAPEUTIC AGENT FOR BACTERIAL INFECTION” (Sumitomo Pharma Co., Ltd., priority 2022, dated 2024)
